Values joined by “and” are separate entries in the source; they are usually repeats but may differ in a detail not shown here. Equal entries are not always repeated. “Also recorded” adds a separate entry of the source. Where a SMILES comes first, the peptide text is derived from it. Bridges are numbered along the chain shown (N, C = ends).
Legend:
rat α3β4 nAChR = molecular target: T1, rat α3β4 nAChR (Rattus norvegicus, UniProt P04757+P12392); experiment: cell-based; type: cell-based
T1 construct: expressed in transfected cells; host or cells: Xenopus laevis oocytes, cRNA injected
T1 sequence (P04757 26-499 limits assumed): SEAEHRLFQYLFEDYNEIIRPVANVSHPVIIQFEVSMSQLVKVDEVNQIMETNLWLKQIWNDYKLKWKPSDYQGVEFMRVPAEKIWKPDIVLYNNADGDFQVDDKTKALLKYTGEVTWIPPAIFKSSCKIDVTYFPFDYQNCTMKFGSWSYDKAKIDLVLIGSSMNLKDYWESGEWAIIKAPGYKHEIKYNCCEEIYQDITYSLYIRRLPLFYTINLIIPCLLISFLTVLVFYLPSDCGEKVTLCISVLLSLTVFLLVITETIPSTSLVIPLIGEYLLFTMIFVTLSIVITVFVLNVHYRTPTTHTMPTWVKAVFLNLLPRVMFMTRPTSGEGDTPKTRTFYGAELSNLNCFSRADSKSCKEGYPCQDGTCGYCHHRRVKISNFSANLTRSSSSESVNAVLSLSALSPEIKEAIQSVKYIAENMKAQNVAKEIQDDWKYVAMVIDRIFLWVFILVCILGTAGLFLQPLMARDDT
T1 sequence (P12392 21-495 limits assumed): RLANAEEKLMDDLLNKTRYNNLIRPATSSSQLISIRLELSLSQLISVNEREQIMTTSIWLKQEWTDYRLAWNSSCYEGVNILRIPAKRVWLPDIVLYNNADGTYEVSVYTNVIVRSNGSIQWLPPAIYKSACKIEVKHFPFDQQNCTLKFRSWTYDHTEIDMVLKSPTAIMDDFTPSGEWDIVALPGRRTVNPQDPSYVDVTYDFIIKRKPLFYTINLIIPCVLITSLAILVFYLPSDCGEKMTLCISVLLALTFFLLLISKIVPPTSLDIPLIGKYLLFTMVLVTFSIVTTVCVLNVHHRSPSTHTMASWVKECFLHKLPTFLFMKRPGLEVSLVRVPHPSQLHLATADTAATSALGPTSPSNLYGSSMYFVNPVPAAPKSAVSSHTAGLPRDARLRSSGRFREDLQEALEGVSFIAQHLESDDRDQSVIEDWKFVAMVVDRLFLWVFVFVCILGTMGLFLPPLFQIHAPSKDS

Rat α3β2 nAChR = molecular target: T2, Rat α3β2 nAChR (Rattus norvegicus, UniProt P04757+P12390); experiment: cell-based; type: cell-based
T2 construct: expressed in transfected cells; host or cells: Xenopus laevis oocytes, cRNA injected
T2 sequence (P04757 26-499 limits assumed): as the sequence (P04757 26-499 limits assumed) above
T2 sequence (P12390 25-500 limits assumed): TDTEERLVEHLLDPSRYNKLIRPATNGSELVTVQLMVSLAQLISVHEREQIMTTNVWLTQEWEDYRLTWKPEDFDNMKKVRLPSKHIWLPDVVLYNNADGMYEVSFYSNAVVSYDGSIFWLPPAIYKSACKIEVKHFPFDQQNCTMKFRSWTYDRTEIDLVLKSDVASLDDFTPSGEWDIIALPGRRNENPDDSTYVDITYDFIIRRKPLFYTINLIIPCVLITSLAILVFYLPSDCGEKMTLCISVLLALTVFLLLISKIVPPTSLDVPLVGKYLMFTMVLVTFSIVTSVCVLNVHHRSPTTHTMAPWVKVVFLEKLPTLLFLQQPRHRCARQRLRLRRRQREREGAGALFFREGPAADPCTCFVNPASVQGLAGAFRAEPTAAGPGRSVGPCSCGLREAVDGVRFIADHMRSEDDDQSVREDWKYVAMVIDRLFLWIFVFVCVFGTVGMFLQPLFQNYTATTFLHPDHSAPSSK

α7 nAChR = molecular target: T3, α7 nAChR (Rattus norvegicus, UniProt Q05941); experiment: cell-based; type: cell-based
T3 construct: expressed in transfected cells; host or cells: Xenopus laevis oocytes, cRNA injected
T3 sequence (Q05941 23-502 limits assumed): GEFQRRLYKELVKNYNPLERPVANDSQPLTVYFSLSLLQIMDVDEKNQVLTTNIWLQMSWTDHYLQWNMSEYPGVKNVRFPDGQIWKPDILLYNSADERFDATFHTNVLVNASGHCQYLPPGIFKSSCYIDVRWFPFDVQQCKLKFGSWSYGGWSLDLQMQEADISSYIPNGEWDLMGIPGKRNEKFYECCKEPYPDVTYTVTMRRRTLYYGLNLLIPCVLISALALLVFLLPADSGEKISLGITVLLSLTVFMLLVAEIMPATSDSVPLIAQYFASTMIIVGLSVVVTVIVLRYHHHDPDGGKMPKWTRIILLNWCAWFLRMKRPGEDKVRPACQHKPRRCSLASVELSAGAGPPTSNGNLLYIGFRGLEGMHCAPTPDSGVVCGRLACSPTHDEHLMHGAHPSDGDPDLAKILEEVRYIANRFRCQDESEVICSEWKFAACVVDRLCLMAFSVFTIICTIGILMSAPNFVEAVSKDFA

α2β2 nAChR = molecular target: T4, α2β2 nAChR (Rattus norvegicus, UniProt P12389+P12390); experiment: cell-based; type: cell-based
T4 construct: expressed in transfected cells; host or cells: Xenopus laevis oocytes, cRNA injected
T4 sequence (P12389 28-511 limits assumed): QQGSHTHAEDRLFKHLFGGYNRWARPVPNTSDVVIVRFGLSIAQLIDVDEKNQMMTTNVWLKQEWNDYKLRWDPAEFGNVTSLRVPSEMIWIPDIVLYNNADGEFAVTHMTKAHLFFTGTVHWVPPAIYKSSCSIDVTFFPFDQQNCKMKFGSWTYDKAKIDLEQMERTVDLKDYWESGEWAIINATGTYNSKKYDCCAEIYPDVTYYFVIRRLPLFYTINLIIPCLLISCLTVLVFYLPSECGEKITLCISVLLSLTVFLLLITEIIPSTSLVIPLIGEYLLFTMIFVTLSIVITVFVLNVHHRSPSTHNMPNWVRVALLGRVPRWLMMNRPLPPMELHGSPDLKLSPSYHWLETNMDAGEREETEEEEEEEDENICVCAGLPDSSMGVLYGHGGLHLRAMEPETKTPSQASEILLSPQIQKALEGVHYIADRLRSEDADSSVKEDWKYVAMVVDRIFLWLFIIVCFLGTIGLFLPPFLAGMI
T4 sequence (P12390 25-500 limits assumed): as the sequence (P12390 25-500 limits assumed) above

α2β4 nAChR = molecular target: T5, α2β4 nAChR (Rattus norvegicus, UniProt P12389+P12392); experiment: cell-based; type: cell-based
T5 construct: expressed in transfected cells; host or cells: Xenopus laevis oocytes, cRNA injected
T5 sequence (P12389 28-511 limits assumed): as the sequence (P12389 28-511 limits assumed) above
T5 sequence (P12392 21-495 limits assumed): as the sequence (P12392 21-495 limits assumed) above

α4β4 nAChR = molecular target: T6, α4β4 nAChR (Rattus norvegicus, UniProt P09483+P12392); experiment: cell-based; type: cell-based
T6 construct: expressed in transfected cells; host or cells: Xenopus laevis oocytes, cRNA injected
T6 sequence (P09483 31-630 limits assumed): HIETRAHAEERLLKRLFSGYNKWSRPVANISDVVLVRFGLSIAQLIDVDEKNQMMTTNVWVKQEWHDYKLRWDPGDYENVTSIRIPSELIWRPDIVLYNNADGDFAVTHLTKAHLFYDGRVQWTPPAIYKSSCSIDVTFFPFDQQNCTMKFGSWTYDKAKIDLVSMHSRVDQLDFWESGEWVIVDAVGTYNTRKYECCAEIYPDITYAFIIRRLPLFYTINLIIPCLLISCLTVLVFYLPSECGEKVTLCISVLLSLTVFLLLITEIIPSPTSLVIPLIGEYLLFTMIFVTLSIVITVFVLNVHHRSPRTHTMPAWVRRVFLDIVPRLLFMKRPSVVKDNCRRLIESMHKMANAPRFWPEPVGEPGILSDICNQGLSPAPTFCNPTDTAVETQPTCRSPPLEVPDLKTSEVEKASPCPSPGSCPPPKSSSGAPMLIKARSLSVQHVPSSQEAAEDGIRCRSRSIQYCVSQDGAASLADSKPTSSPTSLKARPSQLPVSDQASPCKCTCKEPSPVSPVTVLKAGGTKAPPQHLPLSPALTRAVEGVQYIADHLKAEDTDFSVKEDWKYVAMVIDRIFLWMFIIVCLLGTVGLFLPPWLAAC
T6 sequence (P12392 21-495 limits assumed): as the sequence (P12392 21-495 limits assumed) above

α6/α3β4 nAChR = molecular target: T7, α6/α3β4 nAChR (Rattus norvegicus, UniProt P04757+P12392+P43143); experiment: cell-based
T7 construct: amino acids 1 to 237 of the rat α6 subunit protein; amino acids 233 to 499 of the rat α3 subunit protein; expressed in transfected cells; host or cells: Xenopus laevis oocytes, cRNA injected
T7 sequence (P43143 31-237 limits assumed): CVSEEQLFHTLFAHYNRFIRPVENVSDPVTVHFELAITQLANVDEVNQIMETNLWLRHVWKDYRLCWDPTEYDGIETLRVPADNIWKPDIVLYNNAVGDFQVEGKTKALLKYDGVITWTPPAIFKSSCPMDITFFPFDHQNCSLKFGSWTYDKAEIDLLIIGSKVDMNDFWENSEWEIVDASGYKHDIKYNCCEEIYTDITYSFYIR
T7 sequence (P04757 233-499 limits assumed): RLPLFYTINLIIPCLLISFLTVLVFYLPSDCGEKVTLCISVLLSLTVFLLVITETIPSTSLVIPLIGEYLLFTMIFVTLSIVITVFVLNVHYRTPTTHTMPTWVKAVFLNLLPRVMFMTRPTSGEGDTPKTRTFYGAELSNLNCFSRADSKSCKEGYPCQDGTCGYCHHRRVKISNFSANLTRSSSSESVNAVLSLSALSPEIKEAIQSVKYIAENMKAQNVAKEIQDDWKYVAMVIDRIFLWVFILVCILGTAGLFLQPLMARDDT
T7 sequence (P12392 21-495): as the sequence (P12392 21-495 limits assumed) above

[1] = molecular target: Mouse CNS α-MII Site (putative α6β2* nAChRs); type: binding
Rat α6/α3β2β3 nAChR = molecular target: T8, Rat α6/α3β2β3 nAChR (Rattus norvegicus, UniProt P04757+P12390+P43143); experiment: cell-based; type: cell-based
T8 construct: amino acids 1 to 237 of the rat α6 subunit protein; amino acids 233 to 499 of the rat α3 subunit protein; expressed in transfected cells; host or cells: Xenopus laevis oocytes, cRNA injected (pT7TS/rα6α3 for the chimera)
T8 sequence (P43143 31-237 limits assumed): as the sequence (P43143 31-237 limits assumed) above
T8 sequence (P04757 233-499 limits assumed): as the sequence (P04757 233-499 limits assumed) above
T8 sequence (P12390 25-500 limits assumed): as the sequence (P12390 25-500 limits assumed) above

α6/α3β2 nAChR = molecular target: T9, α6/α3β2 nAChR (Rattus norvegicus, UniProt P04757+P12390+P43143); experiment: cell-based
T9 construct: amino acids 1 to 237 of the rat α6 subunit protein; amino acids 233 to 499 of the rat α3 subunit protein; expressed in transfected cells; host or cells: Xenopus laevis oocytes, cRNA injected
T9 sequence (P43143 31-237 limits assumed): as the sequence (P43143 31-237 limits assumed) above
T9 sequence (P04757 233-499 limits assumed): as the sequence (P04757 233-499 limits assumed) above
T9 sequence (P12390 25-500 limits assumed): as the sequence (P12390 25-500 limits assumed) above

rat α6β4 nAChR = molecular target: T10, rat α6β4 nAChR (Rattus norvegicus, UniProt P12392+P43143); type: cell-based
T10 construct: expressed in transfected cells; host or cells: Xenopus laevis oocytes, cRNA injected (50 ng each)
T10 sequence (P43143 31-493): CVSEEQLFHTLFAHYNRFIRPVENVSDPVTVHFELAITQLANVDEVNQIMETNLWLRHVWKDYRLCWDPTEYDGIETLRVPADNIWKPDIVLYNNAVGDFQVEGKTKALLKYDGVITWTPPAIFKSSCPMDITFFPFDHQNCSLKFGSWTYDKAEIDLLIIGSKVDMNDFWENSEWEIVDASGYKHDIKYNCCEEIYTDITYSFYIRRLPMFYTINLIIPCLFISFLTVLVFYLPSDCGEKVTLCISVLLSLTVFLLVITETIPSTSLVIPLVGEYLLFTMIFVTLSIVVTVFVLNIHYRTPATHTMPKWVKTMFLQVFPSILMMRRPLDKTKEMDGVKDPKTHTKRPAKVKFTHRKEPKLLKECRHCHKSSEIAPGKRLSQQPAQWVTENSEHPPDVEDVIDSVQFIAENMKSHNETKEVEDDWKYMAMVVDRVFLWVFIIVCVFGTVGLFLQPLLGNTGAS
T10 sequence (P12392 21-495): as the sequence (P12392 21-495 limits assumed) above

α4β2 nAChR = molecular target: T11, α4β2 nAChR (Rattus norvegicus, UniProt P09483+P12390); type: cell-based
T11 construct: expressed in transfected cells; host or cells: Xenopus laevis oocytes, cRNA injected
T11 sequence (P09483 31-630 limits assumed): as the sequence (P09483 31-630 limits assumed) above
T11 sequence (P12390 25-500 limits assumed): as the sequence (P12390 25-500 limits assumed) above

CC(C)C[C@@H]1NC(=O)[C@H](Cc2c[nH]cn2)NC(=O)[C@@H]2CSSC[C@H](NC(=O)CN)C(=O)N[C@@H](CSSC[C@@H](C(N)=O)NC(=O)[C@H](CC(C)C)NC(=O)[C@H](CC(N)=O)NC(=O)[C@H](CO)NC(=O)[C@H](Cc3c[nH]cn3)NC(=O)[C@H](C)NC1=O)C(=O)N[C@@H](CO)C(=O)N[C@@H](CC(N)=O)C(=O)N1CCC[C@H]1C(=O)N[C@@H](C(C)C)C(=O)N2 [MII[E11A]] (H-GCCSNPVCHLAHSNLC-NH2; disulfide 2-8, 3-16)
IC50 (rat α3β4 nAChR): 2100 nM
Ratio nAChR subtype IC50/α6/α3β2β3 IC50, α3β4 (rat α3β4 nAChR): 13,100
IC50 (Rat α3β2 nAChR): 8.72 nM
Ratio IC50 α3β2/IC50 α6/α3β2β3 (Rat α3β2 nAChR): 54.5
IC50 (α7 nAChR): 1050 nM
Ratio nAChR subtype IC50/α6/α3β2β3 IC50, α7 (α7 nAChR): 6,570
IC50 (α2β2 nAChR): > 10000 nM
Ratio nAChR subtype IC50/α6/α3β2β3 IC50, α2β2 (α2β2 nAChR): >62,500
IC50 (α2β4 nAChR): > 10000 nM
Ratio nAChR subtype IC50/α6/α3β2β3 IC50, α2β4 (α2β4 nAChR): >62,500
IC50 (α4β4 nAChR): > 10000 nM
Ratio nAChR subtype IC50/α6/α3β2β3 IC50, α4β4 (α4β4 nAChR): >62,500
IC50 (α6/α3β4 nAChR): 6.44 nM
Ratio nAChR subtype IC50/α6/α3β2β3 IC50, α6/α3β4 (α6/α3β4 nAChR): 40.3
Ki [1]: 0.27 nM
IC50 (Rat α6/α3β2β3 nAChR): 0.16 nM
Ratio nAChR subtype IC50/α6/α3β2β3 IC50, α6/α3β2β3 (Rat α6/α3β2β3 nAChR): 1.00
IC50 (α6/α3β2 nAChR): 0.154 nM
Ratio nAChR subtype IC50/α6/α3β2β3 IC50, α6/α3β2 (α6/α3β2 nAChR): 0.962

CC(C)C[C@@H]1NC(=O)[C@H](C)NC(=O)[C@@H]2CSSC[C@H](NC(=O)CN)C(=O)N[C@@H](CSSC[C@@H](C(N)=O)NC(=O)[C@H](C)NC(=O)[C@H](CC(N)=O)NC(=O)[C@H](CO)NC(=O)[C@H](Cc3c[nH]cn3)NC(=O)[C@H](CCC(=O)O)NC1=O)C(=O)N[C@@H](CO)C(=O)N[C@@H](CC(N)=O)C(=O)N1CCC[C@H]1C(=O)N[C@@H](C(C)C)C(=O)N2 [MII[H9A; L15A]] (H-GCCSNPVCALEHSNAC-NH2; disulfide 2-8, 3-16)
Hill slope (nH), α3β4 (rat α3β4 nAChR): 0.75±0.1
activity at α3β4 (in words) (rat α3β4 nAChR): low or no activity; also recorded: little or no activity
Hill slope, α3β2 (Rat α3β2 nAChR): 0.48±0.04
ACh response, percentage of control, Rα7 (α7 nAChR): 61.4 ± 2.3 % of control and 100 ± 1.5 % of control
activity at α7 (in words) (α7 nAChR): low or no activity; also recorded: little or no activity
ACh response, percentage of control, Rα2β2 (α2β2 nAChR): 102 ± 1.4 % of control and 103 ± 1.9 % of control
activity at α2β2 (in words) (α2β2 nAChR): low or no activity; also recorded: little or no activity
ACh response, percentage of control, Rα2β4 (α2β4 nAChR): 96.7 ± 3.2 % of control and 95.9 ± 2.3 % of control
activity at α2β4 (in words) (α2β4 nAChR): low or no activity; also recorded: little or no activity
ACh response, percentage of control, Rα4β4 (α4β4 nAChR): 99.0 ± 4.0 % of control and 100 ± 5.6 % of control
activity at α4β4 (in words) (α4β4 nAChR): low or no activity; also recorded: little or no activity
Hill slope (nH), α6β4 (rat α6β4 nAChR): 0.60±0.09
Ki [1]: 3.3 nM
ACh response, percentage of control, Rα4β2 (α4β2 nAChR): 98.5 ± 4.4 % of control and 101 ± 2.5 % of control
activity at α4β2 (in words) (α4β2 nAChR): low or no activity; also recorded: little or no activity

CC(C)C[C@@H]1NC(=O)[C@H](C)NC(=O)[C@@H]2CSSC[C@H](NC(=O)CN)C(=O)N[C@@H](CSSC[C@@H](C(N)=O)NC(=O)[C@H](CC(C)C)NC(=O)[C@H](CC(N)=O)NC(=O)[C@H](CO)NC(=O)[C@H](Cc3c[nH]cn3)NC(=O)[C@H](CCC(=O)O)NC1=O)C(=O)N[C@@H](CO)C(=O)N[C@@H](CC(N)=O)C(=O)N1CCC[C@H]1C(=O)N[C@@H](C(C)C)C(=O)N2 [MII[H9A]] (H-GCCSNPVCALEHSNLC-NH2; disulfide 2-8, 3-16)
Hill slope, α3β2 (Rat α3β2 nAChR): 0.83±0.08
IC50 (Rat α3β2 nAChR): 59 nM
Ratio IC50 α3β2/IC50 α6/α3β2β3 (Rat α3β2 nAChR): 74.7
Ki [1]: 1.1 nM
Hill slope, α6/α3β2β3 (Rat α6/α3β2β3 nAChR): 0.73±0.08
IC50 (Rat α6/α3β2β3 nAChR): 0.79 nM
ACh response, percentage of control, Rα4β2 (α4β2 nAChR): 105.8±2.4 % of control

CC(C)C[C@@H]1NC(=O)[C@H](Cc2c[nH]cn2)NC(=O)[C@@H]2CSSC[C@H](NC(=O)CN)C(=O)N[C@@H](CSSC[C@@H](C(N)=O)NC(=O)[C@H](C)NC(=O)[C@H](CC(N)=O)NC(=O)[C@H](CO)NC(=O)[C@H](Cc3c[nH]cn3)NC(=O)[C@H](CCC(=O)O)NC1=O)C(=O)N[C@@H](CO)C(=O)N[C@@H](CC(N)=O)C(=O)N1CCC[C@H]1C(=O)N[C@@H](C(C)C)C(=O)N2 [MII[L15A]] (H-GCCSNPVCHLEHSNAC-NH2; disulfide 2-8, 3-16)
Hill slope, α3β2 (Rat α3β2 nAChR): 0.58±0.08
IC50 (Rat α3β2 nAChR): 34.1 nM
Ratio IC50 α3β2/IC50 α6/α3β2β3 (Rat α3β2 nAChR): 37.2
Ki [1]: 0.3 nM
Hill slope, α6/α3β2β3 (Rat α6/α3β2β3 nAChR): 0.75±0.08
IC50 (Rat α6/α3β2β3 nAChR): 0.917 nM
ACh response, percentage of control, Rα4β2 (α4β2 nAChR): 102.3±5.3 % of control

— patent US7387997B2 (University of Utah, priority 2004, dated 2008)
